Literature values in patent publication US11357858B2, “Pharmaceutical compositions for the treatment of postoperative pain” (FIDIA FARMACEUTICI S.P.A., priority 2018, dated 2022).
Counter-ions that a name gives are not always drawn.

Conditions: in vivo

Structure (SMILES): CCCN1CCCC[C@H]1C(=O)Nc1c(C)cccc1C [ropivacaine HCl]
- maximum dose which can be administered without the onset of side effects: about 2.5 mg/kg
